Literature values as cited in publication PMC5673907 (Clinical and Translational Science, 2017).

Tested on: HDL inflammatory index
Settings: simvastatin 40 mg daily

CCC(C)(C)C(=O)O[C@H]1C[C@@H](C)C=C2C=C[C@H](C)[C@H](CC[C@@H]3C[C@@H](O)CC(=O)O3)[C@H]21 [simvastatin]
Mean HII after statin: above 1.0 UR
Drop in HII (6 weeks, statin-naive CHD/equivalent risk): 28%
